Assay results: patent US11400106B2, “Methods for inhibiting microbe growth” (priority 2018, dated 2022)
Where two headings read alike, the source gives them in different places. Marks after values point to notes of the source that are not given here. Blank lines part the entries; values can stand above or below the compound they belong to. Where a SMILES comes first, the peptide text is derived from it.

Key:
E. coli = test: microbe, parasite or virus in culture; assay type: cell-based, Escherichia coli; conditions: for MIC: Escherichia coli, 18 h, read-out: MIC, E. coli, MHB−
Experimental: (§1) In the following experiments, bacterial cells were cultured in 96-well microtiter plates in cation-adjusted Mueller-Hinton Broth (MHB) for 18 h at 37° C. The main strains used were E. coli (K-12 BW25113) (placed in stationary incubator) and S. aureus (Newman Strain) (incubated at 250 r.p.m). Knockout strains (ΔtolcC and ΔychM) were used from the Keio knockout collection (Baba et al., Construction of Escherichia coli K-12 in-frame, single-gene knockout mutants: the Keio collection. Mol Syst Biol 2, 2006 0008, doi:10.1038/msb4100050 (2006)). For MIC determination and checkerboard analyses, Clinical & Laboratory Standards Institute (CLSI) protocol was used. […] DiSC3 loading of S. aureus cells was performed as previously described (Farha et al., Collapsing the proton motive force to identify synergistic combinations against Staphylococcus aureus. Chemistry & biology 20, 1168-1178, doi:10.1016/j.chembiol.2013.07.006 (2013)). CCCP concentration of 20 μM was used. pH adjustments were made by addition of HCl or NaOH. INT assay and ATP bioluminescence assays were performed as previously described (Farha et al., Collapsing the proton motive force to identify synergistic combinations against Staphylococcus aureus. Chemistry & biology 20, 1168-1178, doi:10.1016/j.chembiol.2013.07.006 (2013)). For chemical-genomic studies, the Keio library was grown overnight in cation-adjusted MHB broth, in 384-well plates. From these, treatment plates (25 mM sodium bicarbonate, or a sterile water control) were inoculated and grown for 15 hours at 37° C., in a stationary incubator. Data was normalized according to Mangat et al (Mangat et al., Rank ordering plate data facilitates data visualization and normalization in high-throughput screening. J Biomol Screen 19, 1314-1320, doi:10.1177/1087057114534298 (2014)), with gene products and GO terms mined from EcoCyc. The GFP promoter library (Keseler et al., EcoCyc: fusing model organism databases with systems biology. Nucleic Acids Res 41, D605-612, doi:10.1093/nar/gks1027 (2013)) was grown for 18 hours at ambient temperature with the same inoculation strategy as with the Keio collection. The analysis pipeline of Zaslaver et al (Zaslaver et al., A comprehensive library of fluorescent transcriptional reporters for Escherichia coli. Nat Methods 3, 623-628, doi:10.1038/nmeth895 (2006)) was used to generate maps of promoter activity, from which lists of promoters with increased or decreased activity were compiled.
(§2) Fold enhancement in MICs in the media supplemented with sodium bicarbonate is represented by a positive fold, whereas suppression of activity is represented by a negative fold.
(§3) The effect of sodium bicarbonate on the activity of additional antibacterial agents was investigated. Clinical isolates of various bacteria were obtained from the ATCC and the IHMA.
(§4) The effect of sodium bicarbonate on the activity of cationic antiseptic agents was investigated. Clinical isolates of various bacteria were obtained from the ATCC and the IHMA.

S. aureus = test: microbe, parasite or virus in culture; conditions: for MIC, S. aureus, MHB / MIC, S. aureus, MHB−: MHB in the absence of sodium bicarbonate; for MIC: Staphylococcus aureus, read-out: MIC, S. aureus, MHB−; for effect of 25 mM sodium bicarbonate on antibacterial activity: result in words
Experimental: as §1, §2, §3, §4

[1] = antiseptic agents, MHB in the presence of 25 mM sodium bicarbonate
[2] = antiseptic agents, fold shift in MIC
[3] = MHB in the absence of sodium bicarbonate
[4] = antibiotic agents, MHB in the absence of sodium bicarbonate
[5] = antibiotic agents, fold shift in MIC, MHB− vs MHB+
[6] = antibiotic agents, MHB in the presence of 25 mM sodium bicarbonate
[7] = S. aureus (Newman strain) (MSSA)

Compound: CC[C@H](C)[C@@H]1NC(=O)[C@H](CCCNC(=N)N)NC(=O)[C@@H](NC(=O)[C@H](CC(C)C)NC(=O)[C@@H](N)CCCNC(=N)N)CSSC[C@@H](C(=O)N[C@@H](CCCNC(=N)N)C(=O)O)NC(=O)[C@H](C(C)C)NC(=O)[C@H](CCCNC(=N)N)NC(=O)[C@H]([C@@H](C)CC)NC(=O)[C@H](C(C)C)NC(=O)[C@H](C(C)C)NC1=O [Bactenesin] (HELM PEPTIDE1{R.L.C.R.I.V.V.I.R.V.C.R}$PEPTIDE1,PEPTIDE1,3:R3-11:R3$$$V2.0; N-terminus and C-terminus assumed; bridges inferred)
enhancement of antimicrobial activity in the presence of bicarbonate (E. coli): 256 fold
MIC in MHB (S. aureus; Newman, 18 h): 128 µg/mL
MIC in MHB + 25 mM bicarbonate (S. aureus; Newman, 18 h): 0.5 µg/mL

Compound: CCCCCCCCCCCCCCCC[N+](C)(C)C.[Br-] [Cetrimodium bromide]
MIC, E. coli, MHB (E. coli; antiseptic agents, MHB in the absence of sodium bicarbonate): >128 μg of antimicrobial agent/mL of buffer
MIC, E. coli, MHB+ (E. coli; [1]): 32 μg of antimicrobial agent/mL of buffer
Fold, E. coli (E. coli; [2]): 4
MIC, S. aureus, MHB (S. aureus; antiseptic agents): 16 μg of antimicrobial agent/mL of buffer
MIC, S. aureus, MHB+ (S. aureus; [1]): 4 μg of antimicrobial agent/mL of buffer
Fold, S. aureus (S. aureus; [2]): 4

Compound: CCN1CCN(C(=O)N[C@@H](C(=O)N[C@@H]2C(=O)N3C(C(=O)O)=C(CSc4nnnn4C)CS[C@H]23)c2ccc(O)cc2)C(=O)C1=O [Cefoperazone]
MIC (E. coli; [3]): 0.125 mg/L
MIC, S. aureus, MHB+ (S. aureus): 4
MIC (S. aureus; 18 h): 0.25 mg/L

Compound: Cc1onc(-c2ccccc2)c1C(=O)N[C@@H]1C(=O)N2[C@@H]1SC(C)(C)[C@@H]2C(=O)O [Oxacillin]
MIC (E. coli; [3]): 256 mg/L
MIC, S. aureus, MHB+ (S. aureus): 1
MIC (S. aureus; 18 h): 0.0625 mg/L

Compound: C/C(=C\C(=O)OCCCCCCCCC(=O)O)C[C@@H]1OC[C@H](C[C@@H]2O[C@H]2[C@@H](C)[C@H](C)O)[C@@H](O)[C@H]1O [Mupirocin]
MIC, E. coli, MHB+ (E. coli): 128 μg of antimicrobial agent/mL of buffer
MIC (E. coli; [4]): 128 mg/L
MIC, S. aureus, MHB+ (S. aureus): 2 μg of antimicrobial agent/mL of buffer
MIC (S. aureus; 18 h): 0.5 mg/L

Compound: COc1cc(Cc2cnc(N)nc2N)cc(OC)c1OC [trimethoprim]
effect of 25 mM sodium bicarbonate on antibacterial activity (E. coli): remained largely unchanged
effect of 25 mM sodium bicarbonate on antibacterial activity (S. aureus; S. aureus): remained largely unchanged

Compound: Oc1cc(Cl)ccc1Oc1ccc(Cl)cc1Cl [Triclosan]
MIC, E. coli, MHB+ (E. coli): 0.125 μg of antimicrobial agent/mL of buffer
MIC (E. coli; [4]): 0.125 mg/L
MIC, S. aureus, MHB+ (S. aureus): 0.062 μg of antimicrobial agent/mL of buffer
MIC (S. aureus; 18 h): 0.062 mg/L

Compound: COc1c(N2CCNC(C)C2)c(F)cc2c(=O)c(C(=O)O)cn(C3CC3)c12 (stereo not shown) [Gatifloxacin]
MIC, E. coli, MHB+ (E. coli): 4 μg of antimicrobial agent/mL of buffer
MIC (E. coli; [4]): 16 mg/L
MIC, S. aureus, MHB+ (S. aureus): 8 μg of antimicrobial agent/mL of buffer
MIC (S. aureus; 18 h): 4 mg/L

Compound: Colistin
MIC, E. coli, MHB+ (E. coli): 0.5 μg of antimicrobial agent/mL of buffer
MIC, E. coli, MHB− (E. coli; [4]): 0.5 μg of antimicrobial agent/mL of buffer
Fold, E. coli (E. coli; [5]): 1
MIC, S. aureus, MHB− (S. aureus; antibiotic agents): >128 μg of antimicrobial agent/mL of buffer
MIC, S. aureus, MHB+ (S. aureus; [6]): >128 μg of antimicrobial agent/mL of buffer
Fold, S. aureus (S. aureus; [5]): 1

Compound: CCn1cc(C(=O)O)c(=O)c2cc(F)c(N3CCNCC3)nc21 [Enoxacin]
MIC (E. coli; [3]): 0.25 mg/L
MIC, S. aureus, MHB+ (S. aureus): 2
MIC (S. aureus; 18 h): 1 mg/L

Compound: CCC[C@@H]1C[C@@H](C(=O)N[C@@H]([C@H]2O[C@H](SC)[C@H](O)[C@@H](O)[C@H]2O)[C@H](C)Cl)N(C)C1 [Clindamycin]
MIC, E. coli, MHB+ (E. coli): 128 μg of antimicrobial agent/mL of buffer
MIC (E. coli; [4]): 128 mg/L
MIC, S. aureus, MHB+ (S. aureus): 0.12 μg of antimicrobial agent/mL of buffer
MIC (S. aureus; 18 h): 0.25 mg/L

Compound: O=C(O)c1ccc(O)cc1 [p-hydroxybenzoate]
Fold, E. coli (E. coli): 1
MIC, E. coli, MHB (E. coli): 64 μg of antimicrobial agent/mL of buffer
MIC, E. coli, MHB+ (E. coli): 64 μg of antimicrobial agent/mL of buffer
MIC, S. aureus, MHB (S. aureus; antiseptic agents): 16 μg of antimicrobial agent/mL of buffer
MIC, S. aureus, MHB+ (S. aureus; [1]): 16 μg of antimicrobial agent/mL of buffer
Fold, S. aureus (S. aureus; [2]): 1

Compound: Lysozyme
effect of 25 mM sodium bicarbonate on antibacterial activity (E. coli; E. coli, result in words): enhanced
MIC in MHB (S. aureus; [7]): >256** μg/mL
MIC in MHB + 25 mM bicarbonate (S. aureus; [7]): >256** μg/mL

Compound: CC(=O)O[C@H]1C[C@@]2(C)[C@@H](C[C@@H](O)[C@H]3[C@@]4(C)CC[C@@H](O)[C@@H](C)[C@@H]4CC[C@@]32C)/C1=C(\CCC=C(C)C)C(=O)O [Fusidic acid]
MIC, E. coli, MHB+ (E. coli): >128 μg of antimicrobial agent/mL of buffer
MIC (E. coli; [4]): > 128 mg/L
MIC, S. aureus, MHB+ (S. aureus): 2 μg of antimicrobial agent/mL of buffer
MIC (S. aureus; 18 h): 0.5 mg/L

Compound: Cc1cc(NS(=O)(=O)c2ccc(N)cc2)no1 [sulfamethoxazole]
effect of 25 mM sodium bicarbonate on antibacterial activity (E. coli): remained largely unchanged
effect of 25 mM sodium bicarbonate on antibacterial activity (S. aureus; S. aureus): remained largely unchanged

Compound: CN[C@@H]1[C@H](O)[C@H](NC)[C@H]2O[C@@]3(O)C(=O)C[C@@H](C)O[C@H]3O[C@@H]2[C@H]1O [Spectinomycin]
MIC (E. coli; [3]): 16 mg/L
MIC, S. aureus, MHB+ (S. aureus): 8
MIC (S. aureus; 18 h): 64 mg/L

Compound: NC[C@H]1O[C@H](O[C@H]2[C@H](O)[C@@H](O[C@H]3O[C@H](CO)[C@@H](O)[C@H](N)[C@H]3O)[C@H](N)C[C@@H]2N)[C@H](O)[C@@H](O)[C@@H]1O [Kanamycin]
MIC (E. coli; [3]): 4 mg/L
MIC, S. aureus, MHB+ (S. aureus): 4
MIC (S. aureus; 18 h): 8 mg/L

Compound: CN[C@H]1C[C@@H](N)[C@H](O)[C@@H](O[C@@H]2O[C@H](CO)[C@H](O)[C@@H]3OC4(O[C@H]23)O[C@H]([C@@H](N)CO)[C@H](O)[C@H](O)[C@H]4O)[C@@H]1O (stereo partly shown) [Hygromycin B]
MIC, E. coli, MHB+ (E. coli): 16 μg of antimicrobial agent/mL of buffer
MIC, E. coli, MHB− (E. coli; [4]): 32 μg of antimicrobial agent/mL of buffer
Fold, E. coli (E. coli; [5]): 2
MIC, S. aureus, MHB− (S. aureus; antibiotic agents): >128 μg of antimicrobial agent/mL of buffer
MIC, S. aureus, MHB+ (S. aureus; [6]): 64 μg of antimicrobial agent/mL of buffer
Fold, S. aureus (S. aureus; [5]): 2

Compound: C[C@@H]1CN(c2c(F)c(N)c3c(=O)c(C(=O)O)cn(C4CC4)c3c2F)C[C@H](C)N1 [Sparfloxacin]
MIC, E. coli, MHB+ (E. coli): 32 μg of antimicrobial agent/mL of buffer
MIC (E. coli; [4]): 16 mg/L
MIC, S. aureus, MHB+ (S. aureus): 0.25 μg of antimicrobial agent/mL of buffer
MIC (S. aureus; 18 h): 0.125 mg/L

Compound: O=CN(O)CCCP(=O)(O)O [Fosmidomycin]
MIC (E. coli; [3]): 16 mg/L
MIC, S. aureus, MHB+ (S. aureus): >64
MIC (S. aureus; 18 h): > 64 mg/L

Compound: Neomycin
Fold, E. coli (E. coli): 4
Fold, S. aureus (S. aureus): 4
MIC, S. aureus, MHB− (S. aureus): 2
MIC, S. aureus, MHB+ (S. aureus; MHB in the presence of 25 mM sodium bicarbonate): 0.5

Compound: CC[C@H]1OC(=O)[C@H](C)[C@@H](O[C@H]2C[C@@](C)(OC)[C@@H](O)[C@H](C)O2)[C@H](C)[C@@H](O[C@@H]2O[C@H](C)C[C@H](N(C)C)[C@H]2O)[C@](C)(O)C[C@@H](C)C(=O)[C@H](C)[C@@H](O)[C@]1(C)O [Erythromycin]
MIC, S. aureus, MHB+ (S. aureus): 1
MIC (S. aureus; 18 h): 32 mg/L

MIC of dirithromycin in the presence of the salt (E. coli; E. coli, salt at 25 mM, pH adjusted to 7.4): 4 mg/L
Compound: O=C([O-])O.[K+] [Potassium bicarbonate]

Compound: Cc1ncc([N+](=O)[O-])n1CCO [Metronidazole]
MIC (S. aureus; 18 h): > 128 mg/L

Compound: CC[C@H](C)[C@H](N)C(=O)N[C@@H](CC(C)C)C(=O)N1CCC[C@H]1C(=O)N[C@@H](Cc1c[nH]c2ccccc12)C(=O)N[C@@H](CCCCN)C(=O)N[C@@H](Cc1c[nH]c2ccccc12)C(=O)N1CCC[C@H]1C(=O)N[C@@H](Cc1c[nH]c2ccccc12)C(=O)N[C@@H](Cc1c[nH]c2ccccc12)C(=O)N1CCC[C@H]1C(=O)N[C@@H](Cc1c[nH]c2ccccc12)C(=O)N[C@@H](CCCNC(=N)N)C(=O)N[C@@H](CCCNC(=N)N)C(N)=O [Indolicidin]
enhancement of antimicrobial activity in the presence of bicarbonate (S. aureus; S. aureus, 25 mM sodium bicarbonate): 16 fold
